Test results as given in ChEMBL document CHEMBL1201862, “PubChem BioAssay data set” (2004).
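Tested at 5 concentrations; 48 h exposure; 96-well plates; endpoints linearly interpolated, else capped at highest concentration. GI50 = concentration required for 50% inhibition of growth.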 Activity calls are given as the source filed them. No stated cut-off is given here; in the data, active = GI50 up to about 1.1 µM and inactive = higher.

Assays:
Assay in all cases: inhibition of tumour cell growth, NCI panel, 48 h
786-0 = tested on: 786-0
A549 = tested on: A549
CAKI-1 = tested on: CAKI-1
CCRF-CEM = tested on: CCRF-CEM
HCC 2998 = tested on: HCC 2998
HL-60 = tested on: HL-60
IGROV-1 = tested on: IGROV-1
K562 = tested on: K562
KM12 = tested on: KM12
LOX IMVI = tested on: LOX IMVI
MDA-MB-435 = tested on: MDA-MB-435
MDA-N = tested on: MDA-N
MOLT-4 = tested on: MOLT-4
NCI/ADR-RES = tested on: NCI/ADR-RES
OVCAR-4 = tested on: OVCAR-4
RXF 393 = tested on: RXF 393
SN12C = tested on: SN12C
U-251 = tested on: U-251
SF-295 = tested on: SF-295

Measured: GI50

CCN(CC)c1ccc2cc(C(N)=O)c(=N)oc2c1
inactive: 786-0 30.1 µM | A549 37.4 µM | CAKI-1 35.4 µM | CCRF-CEM 31.2 µM | HCC 2998 5.36 µM | HL-60 36.5 µM | IGROV-1 21.1 µM | K562 > 100 µM | KM12 31 µM | LOX IMVI 29.5 µM | MDA-MB-435 30.9 µM | MDA-N 38.2 µM | MOLT-4 69.2 µM | NCI/ADR-RES 53.1 µM | OVCAR-4 23.6 µM | RXF 393 55 µM | SN12C 31.3 µM | U-251 98.6 µM

CCC(N)(C(=O)O)C(C)C (stereo not given)
inactive: 786-0 > 100 µM | A549 > 100 µM | CAKI-1 > 100 µM | CCRF-CEM > 100 µM | HCC 2998 > 100 µM | HL-60 > 100 µM | IGROV-1 > 100 µM | K562 > 100 µM | KM12 > 100 µM | LOX IMVI > 100 µM | MDA-MB-435 > 100 µM | MDA-N > 100 µM | NCI/ADR-RES > 100 µM | OVCAR-4 > 100 µM | RXF 393 > 100 µM | SF-295 > 100 µM | SN12C > 100 µM | U-251 > 100 µM

COc1ccc(C(=O)Cn2c(C(=O)/C=C/c3ccco3)nc3ccccc32)cc1
inactive: 786-0 31 µM | A549 42.8 µM | CCRF-CEM 25.1 µM | HCC 2998 16.6 µM | HL-60 22.1 µM | IGROV-1 44.1 µM | K562 22.2 µM | KM12 28.3 µM | LOX IMVI 25.8 µM | MDA-MB-435 24.4 µM | MDA-N 26 µM | MOLT-4 15.8 µM | NCI/ADR-RES 25.9 µM | OVCAR-4 37.1 µM | RXF 393 41.3 µM | SN12C 39.1 µM | U-251 32.7 µM

CC(=S)NC=C(C(N)=O)C(N)=O
inactive: 786-0 > 100 µM | A549 > 100 µM | CAKI-1 > 100 µM | CCRF-CEM > 100 µM | HCC 2998 > 100 µM | HL-60 > 100 µM | IGROV-1 > 100 µM | K562 > 100 µM | KM12 > 100 µM | LOX IMVI > 100 µM | MDA-MB-435 > 100 µM | MDA-N > 100 µM | MOLT-4 > 100 µM | NCI/ADR-RES > 100 µM | RXF 393 > 100 µM | SF-295 > 100 µM | SN12C > 100 µM | U-251 > 100 µM

COC(=O)/N=[N+](\[O-])C(c1ccccc1)c1ccccc1
inactive: 786-0 > 100 µM | A549 33.2 µM | CAKI-1 76.6 µM | CCRF-CEM 82 µM | HCC 2998 > 100 µM | HL-60 > 100 µM | IGROV-1 61.8 µM | K562 47.8 µM | KM12 > 100 µM | LOX IMVI 69 µM | MDA-MB-435 31 µM | MDA-N 59.2 µM | MOLT-4 > 100 µM | NCI/ADR-RES 40.1 µM | OVCAR-4 34.8 µM | RXF 393 63.8 µM | SN12C > 100 µM | U-251 > 100 µM

COC(=O)C1C(O)C(C)C(O)C(C)C=C(C)C2=C3C(=C(C)C(=O)c4c(O)c(c(C)c(OC(C)=O)c43)NC(=O)C(C)=C/C=C\C(C)C(O)C(C)C1O)OCO2 (stereo not given)
inactive: 786-0 57.1 µM | A549 54 µM | CCRF-CEM 23.6 µM | HCC 2998 34.3 µM | HL-60 17.8 µM | IGROV-1 42.1 µM | K562 18.6 µM | KM12 31.9 µM | LOX IMVI 17.1 µM | MDA-MB-435 15.7 µM | MDA-N 16.9 µM | MOLT-4 15.6 µM | NCI/ADR-RES 40.5 µM | OVCAR-4 25.3 µM | RXF 393 24.9 µM | SF-295 51.6 µM | SN12C 37.4 µM | U-251 45.4 µM

O=C(O)[C@@H]1NC[C@H]2C(Br)=NO[C@H]21
inactive: 786-0 > 100 µM | A549 > 100 µM | CAKI-1 > 100 µM | CCRF-CEM > 100 µM | HCC 2998 > 100 µM | HL-60 > 100 µM | IGROV-1 > 100 µM | KM12 > 100 µM | LOX IMVI > 100 µM | MDA-MB-435 > 100 µM | MDA-N > 100 µM | MOLT-4 29.3 µM | NCI/ADR-RES > 100 µM | OVCAR-4 > 100 µM | RXF 393 > 100 µM | SF-295 > 100 µM | SN12C > 100 µM | U-251 > 100 µM

Nc1nc(Cl)cc(OCC2(CO)CC=CC2)n1
inactive: 786-0 > 100 µM | A549 > 100 µM | CCRF-CEM > 100 µM | HCC 2998 > 100 µM | HL-60 > 100 µM | IGROV-1 > 100 µM | K562 95.7 µM | LOX IMVI > 100 µM | MDA-MB-435 > 100 µM | MDA-N > 100 µM | MOLT-4 > 100 µM | NCI/ADR-RES > 100 µM | OVCAR-4 > 100 µM | RXF 393 > 100 µM | SF-295 > 100 µM | SN12C > 100 µM | U-251 46.2 µM

C/C=C1\C(=O)O[C@H]2C/C(C)=C/CC/C(C)=C/CC[C@@]3(C)O[C@@H]3C[C@@H]12
inactive: 786-0 > 100 µM | A549 > 100 µM | CAKI-1 > 100 µM | CCRF-CEM 35 µM | HCC 2998 > 100 µM | HL-60 52 µM | IGROV-1 61.1 µM | K562 > 100 µM | KM12 > 100 µM | MDA-MB-435 > 100 µM | MDA-N > 100 µM | MOLT-4 95.1 µM | NCI/ADR-RES > 100 µM | RXF 393 > 100 µM | SF-295 > 100 µM | SN12C > 100 µM | U-251 85.5 µM

CC(=O)NC(CCC(=O)C=[N+]=[N-])C(=O)O (stereo not given)
inactive: 786-0 > 100 µM | A549 > 100 µM | CCRF-CEM > 100 µM | HCC 2998 > 100 µM | HL-60 > 100 µM | IGROV-1 > 100 µM | K562 > 100 µM | KM12 > 100 µM | LOX IMVI > 100 µM | MDA-MB-435 > 100 µM | MDA-N > 100 µM | MOLT-4 > 100 µM | NCI/ADR-RES > 100 µM | OVCAR-4 > 100 µM | RXF 393 > 100 µM | SF-295 > 100 µM | SN12C > 100 µM | U-251 > 100 µM

CC(=O)Nc1ccc(-c2nc3ccccc3s2)cc1O
inactive: 786-0 41.1 µM | A549 40.1 µM | CAKI-1 27 µM | CCRF-CEM 22.2 µM | HCC 2998 30.6 µM | IGROV-1 20.9 µM | K562 76.2 µM | KM12 17.2 µM | LOX IMVI 41.3 µM | MDA-MB-435 37.8 µM | MDA-N 29.6 µM | MOLT-4 14.6 µM | NCI/ADR-RES 17.1 µM | OVCAR-4 92.3 µM | RXF 393 > 100 µM | SF-295 52.6 µM | SN12C 30.4 µM | U-251 37.4 µM
